54 compounds from BindingDB's records for doi:10.7270/Q2VX0F3D (Burnham Center For Chemical Genomics, 2012) can be followed below.

In the assay the target is T1, Corticotropin-releasing factor-binding protein (Homo sapiens, UniProt P24387).
T1 sequence (P24387 whole entry): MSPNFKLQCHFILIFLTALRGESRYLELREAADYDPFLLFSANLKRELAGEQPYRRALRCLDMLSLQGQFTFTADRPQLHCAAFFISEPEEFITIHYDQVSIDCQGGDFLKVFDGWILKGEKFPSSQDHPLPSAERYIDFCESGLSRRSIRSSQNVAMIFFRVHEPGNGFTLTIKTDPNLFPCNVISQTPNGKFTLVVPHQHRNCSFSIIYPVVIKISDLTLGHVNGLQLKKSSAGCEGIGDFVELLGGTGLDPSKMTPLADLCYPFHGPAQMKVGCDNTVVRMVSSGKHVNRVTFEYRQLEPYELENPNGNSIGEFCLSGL
The assay is described as follows: activators of CRF receptor 2 with binding protein – uHTS hits, confirmation (AID 602473).

As to `CN(CCOc1ccc(Cc2sc(=O)[nH]c2O)cc1)c1ccccn1`, the EC50 is > 53 µM.

`Cc1c(N=C2C(=O)N(c3ccccc3Cl)C(=O)C2Cl)c(=O)n(-c2ccccc2)n1C` (centres undefined): the EC50 was > 53 µM. As for `Cc1cc2c(cc1C)NC(c1c(C)n(C)n(-c3ccccc3)c1=O)C1C(=O)CC(C)(C)CC1=N2` (centres undefined), the figure is > 53 µM; as for `N#CC1C(=N)OC2=C(C(=O)CC(c3ccccc3)C2)C1c1ccc2c(c1)OCO2` (centres undefined), > 53 µM; as for `Clc1ccc(C2=Nc3ncnn3C(c3ccco3)C2)cc1` (centres undefined), 8.29 µM. As for `COc1cccc(C(=O)Cc2nc3ccc(C(=O)NCCc4ccc(Cl)cc4)cc3[nH]c2=O)c1`, the figure is 5.02 µM; as for `Cc1ccc(-n2c(O)c3n(-c4ccccc4)[nH]c(C(=O)c4ccccc4)c-3c2=O)cc1`, 22.2 µM; as for `COc1ccccc1-n1c(O)c2n(-c3ccc(C)cc3)[nH]c(C(=O)c3ccccc3)c-2c1=O`, 5.27 µM. `N#CC(C(=O)COc1ccc(Cl)cc1)c1nc2ccccc2s1` (centres undefined): the EC50 was > 53 µM. In the case of `CCOc1ccc(C2CC(c3ccc(C)cc3)=Nc3nnnn32)cc1` (centres undefined), the EC50 is > 53 µM. As for `Cc1ccccc1COc1ccc(C(=O)C2C(=O)C(=O)N(CCCn3ccnc3)C2c2ccco2)cc1` (centres undefined), the figure is > 53 µM; as for `COc1cc(C2c3c(-c4ccccn4)n[nH]c3OC(=N)C2C#N)cc(OC)c1OC` (centres undefined), > 53 µM. With `O=C(Cc1sc(N=NC=CCc2ccccc2)nc1O)Nc1ccc(Cl)c(Cl)c1`, the EC50 is > 53 µM.

For `CN1C(=O)C(=CCC=Nc2ccccc2)C(=O)N(C)C1=O`, the EC50 is > 53 µM. As for `CC1(C)CC(=O)C2CNc3ccccc3N=C2C1` (centres undefined), the concentration for a half-maximal effect (EC50) is > 53 µM. Next, `COC(=O)C1=C(C)NC(=O)C1=CNc1ccc(Oc2ccccc2)cc1`: > 53 µM.

With `O=C(O)c1ccc(CN=Nc2cccc(C(F)(F)F)c2)cc1`, the EC50 is > 53 µM.

Regarding `CCOc1ccc(C2=Nc3ncnn3C(c3ccccc3)C2)cc1` (centres undefined), the EC50 is > 53 µM.

`COc1cc2c(cc1OC)C(CC(=O)c1ccc(OC)c([N+](=O)[O-])c1)=NCC2`: the EC50 was > 53 µM. Turning to `COc1ccc(-n2c(O)cc(-c3ccc([N+](=O)[O-])cc3)c2O)cc1`, the EC50 was > 53 µM. Next, `Cc1ccc(-n2c(O)cc(=O)[nH]c2=O)c(C)c1`: > 53 µM.

The compound `CCCCCCC1=Cc2c/c(=C(/N)NNC(=O)c3ccncc3)c(=O)oc2=CC1=O` returned an EC50 of 1.11 µM. This counts as single-digit micromolar. In the case of `Cc1ccc2nc(N3C(=O)C(=O)C(C(=O)c4ccco4)C3c3cccc(O)c3)sc2c1` (centres undefined), the EC50 was > 53 µM. As for `COc1cc(/C=C2\CCC(C)C3=C(c4cc(OC)c(OC)c(OC)c4)C(C#N)C(=N)OC32)cc(OC)c1OC` (centres undefined), the figure is > 53 µM. For `CC1=CC(C)(C(Cl)(Cl)Cl)C(C)C=C1N=O` (centres undefined), the EC50 is > 53 µM. As to `CCNC(=S)N(CCc1ccc(S(N)(=O)=O)cc1)c1cc(O)n(-c2ccccc2)c1O` [1-(2,5-dioxo-1-phenyl-3-pyrrolidinyl)-3-ethyl-1-[2-(4-sulfamoylphenyl)ethyl]thiourea], the EC50 amounted to 18.5 µM. Turning to `Cc1ccc(C2CC(c3ccccc3)=Nc3nc(-n4c(O)ccc4O)nn32)cc1` (centres undefined) [1-[7-(4-methylphenyl)-5-phenyl-1,7-dihydro-[1,2,4]triazolo[1,5-a]pyrimidin-2-yl]pyrrolidine-2,5-dione], the EC50 was > 53 µM. Next, `CCOc1ccc(C2C(C#N)=C3Sc4ccccc4N3C(=N)C2C#N)cc1` (centres undefined) [1-amino-3-(4-ethoxyphenyl)-3H-pyrido[2,1-b][1,3]benzothiazole-2,4-dicarbonitrile]: 8.06 µM; `Oc1ccc(CN=Nc2nc(N3CCCCCC3)nc(N3CCCCCC3)n2)c(O)c1` [2,4-dihydroxybenzaldehyde (4,6-diazepan-1-yl-1,3,5-triazin-2-yl)hydrazone]: > 53 µM. On to `COc1cc(C2C(C(=O)c3ccco3)C(=O)C(=O)N2c2cc(C)on2)cc(Br)c1O` (centres undefined) [2-(3-bromanyl-5-methoxy-4-oxidanyl-phenyl)-3-(furan-2-ylcarbonyl)-1-(5-methyl-1,2-oxazol-3-yl)-4-oxidanyl-2H-pyrrol-5-one], for which the concentration giving a half-maximal response (EC50) is > 53 µM. For the compound `C=C1C(c2ccc(Cl)cc2)=[N+](O)C(c2ccccc2)=CN1[O-]` [2-(4-chlorophenyl)-3-methyl-4-oxido-6-phenylpyrazin-1-ium 1-oxide], the EC50 was > 53 µM.

Regarding `N#Cc1cc2ccccc2nc1SCc1cccnc1` [2-(Pyridin-3-ylmethylsulfanyl)-quinoline-3-carbonitrile], the EC50 is > 53 µM. As for `CCCCCCc1cc2cc(C(=O)NCc3ccccc3)c(N)oc-2cc1=O` [2-amino-6-hexyl-7-oxo-N-(phenylmethyl)-1-benzopyran-3-carboxamide], the figure is 4.2 µM; as for `COc1ccc(C2c3ccc(O)cc3OC(=N)C2C#N)cc1C` (centres undefined) [2-amino-7-hydroxy-4-(4-methoxy-3-methylphenyl)-4H-1-benzopyran-3-carbonitrile], > 53 µM. Next, `CCCCCCc1cc2cc(C(=O)NC)c(N)oc-2cc1=O` [2-azanyl-6-hexyl-N-methyl-7-oxidanylidene-chromene-3-carboxamide]: 3.06 µM; `CCCC1=Nc2nc(C)nn2C(c2cccnc2)C1C(=O)OCC` (centres undefined) [2-methyl-5-propyl-7-(3-pyridinyl)-1,7-dihydro-[1,2,4]triazolo[1,5-a]pyrimidine-6-carboxylic acid ethyl ester]: > 53 µM; `Oc1nc(N=NCc2ccc(F)cc2)sc1-c1ccccc1` [2-{N'-[1-(4-Fluoro-phenyl)-meth-(E)-ylidene]-hydrazino}-5-phenyl-thiazol-4-one]: > 53 µM. Next, `CC1C2=C(CC(C)(C)CC2=O)N=C2CC(C)(C)CC(=O)C21` (centres undefined) [3,3,6,6,9-pentamethyl-2,4,5,7,9,10-hexahydroacridine-1,8-dione]: > 53 µM; `COc1ccccc1C1C(C(=O)c2sc(C)nc2C)C(=O)C(=O)N1CCN1CCOCC1` (centres undefined) [3-(2,4-dimethyl-1,3-thiazole-5-carbonyl)-4-hydroxy-2-(2-methoxyphenyl)-1-(2-morpholin-4-ylethyl)-2H-pyrrol-5-one]: > 53 µM. In the case of `C=CCOc1ccc(C2C(C(=O)c3ccco3)C(=O)C(=O)N2c2nnc(C)s2)cc1` (centres undefined) [3-(furan-2-carbonyl)-4-hydroxy-1-(5-methyl-1,3,4-thiadiazol-2-yl)-2-(4-prop-2-enoxyphenyl)-2H-pyrrol-5-one], the EC50 is > 53 µM.

Take `Cc1cccc(N2C(=O)C(=O)C(C(=O)c3cccs3)C2c2ccc(C(C)C)cc2)n1` (centres undefined) [3-Hydroxy-5-(4-isopropyl-phenyl)-1-(6-methyl-pyridin-2-yl)-4-(thiophene-2-carbonyl)-1,5-dihydro-pyrrol-2-one]: a half-maximal effect (EC50) was put at 11.3 µM. That is a double-digit micromolar value.

Take `O=C(Cc1nc2ccccc2n(-c2ccccc2)c1=O)c1ccc(F)cc1` [3-[2-(4-fluorophenyl)-2-oxoethylidene]-1-phenyl-3,4-dihydro-2(1H)-quinoxalinone]: the midpoint of the response, the EC50, lay at 7.18 µM.

In turn, `O=c1c(CN=Nc2ccccc2)c(Sc2nnnn2-c2ccccc2)nc2ccccn12` [3-[(phenylhydrazinylidene)methyl]-2-(1-phenyltetrazol-5-yl)sulfanylpyrido[1,2-a]pyrimidin-4-one] registered an EC50 of 10.1 µM. Next, `O=C(c1ccccc1)c1[nH]n(-c2ccccc2)c2c(O)n(-c3ccccc3)c(=O)c1-2` [3-benzoyl-1,5-diphenyl-3a,6a-dihydropyrrolo[3,4-c]pyrazole-4,6-dione]: 14.6 µM; `CC(=O)C1C(=O)C(=O)N(Cc2ccccc2)C1c1ccc(F)cc1` (centres undefined) [3-ethanoyl-2-(4-fluorophenyl)-4-oxidanyl-1-(phenylmethyl)-2H-pyrrol-5-one]: > 53 µM. Regarding `Cc1cc(=O)oc2c1ccc1oc(C(N=O)c3ccccc3)c(C)c12` (centres undefined) [4,9-dimethyl-8-(N-oxidanyl-C-phenyl-carbonimidoyl)furo[2,3-h]chromen-2-one], the EC50 was > 53 µM. For `CSCSC1=NC(C)=C(C(C)=O)C(c2ccccc2Cl)C1C#N` (centres undefined) [4-(2-chlorophenyl)-5-ethanoyl-6-methyl-2-(methylsulfanylmethylsulfanyl)-1,4-dihydropyridine-3-carbonitrile], the EC50 is > 53 µM. As for `CCOC(=O)C1C(CCc2ccccc2)=NC(=O)NC1c1cccc([N+](=O)[O-])c1` (centres undefined) [4-(3-nitrophenyl)-2-oxo-6-(2-phenylethyl)-3,4-dihydro-1H-pyrimidine-5-carboxylic acid ethyl ester], the figure is > 53 µM; as for `COC(=O)c1ccc(C(=O)C(C#N)c2nc3ccccc3s2)cc1` (centres undefined) [4-[(2Z)-2-(3H-1,3-benzothiazol-2-ylidene)-2-cyano-1-oxoethyl]benzoic acid methyl ester], > 53 µM; as for `C=CCSc1nnc(C)c(CC=Nc2ccc(Cl)cc2)n1` [4-chloro-N-[(E)-2-(6-methyl-3-prop-2-enylsulfanyl-1,2,4-triazin-5-yl)ethenyl]aniline], 4.77 µM. Next, `Cc1ccc2nc(N3C(=O)C(=O)C(C(=O)c4ccc(C)o4)C3c3cccc(O)c3)sc2c1` (centres undefined) [4-hydroxy-2-(3-hydroxyphenyl)-1-(6-methyl-1,3-benzothiazol-2-yl)-3-(5-methylfuran-2-carbonyl)-2H-pyrrol-5-one]: > 53 µM. For the compound `CC1(C)CC(=O)C(C2C3=C(CC(C)(C)CC3=O)Oc3c(Br)cc(Br)cc32)C(=O)C1` (centres undefined) [5,7-bis(bromanyl)-9-(4,4-dimethyl-2-oxidanyl-6-oxidanylidene-cyclohexen-1-yl)-3,3-dimethyl-4,9-dihydro-2H-xanthen-1-one], the EC50 turned out to be 10.3 µM.

For `O=C1CC(c2ccccc2)C(c2ccccc2)C1=O` (centres undefined) [5-oxidanyl-3,4-diphenyl-cyclopent-2-en-1-one], the EC50 was > 53 µM. Next, `O=c1cc(Nc2cc(O)n(-c3ccccc3Cl)c2O)[nH]c(=O)[nH]1` [6-[[1-(2-chlorophenyl)-2,5-dioxopyrrolidin-3-yl]amino]-1H-pyrimidine-2,4-dione]: > 53 µM.
